Measured values as given in patent US9090593B2, “Bicyclic compounds as Pim inhibitors” (AMGEN INC., priority 2010, dated 2015).

What was measured:
[1] = target: T1, full length recombinant Pim-1 protein (Homo sapiens, UniProt P11309); assay: Pim-1 enzyme assay (HTRF, phosphorylation of biotinylated-BAD (S112) peptide); type: biochemical; conditions: read-out: Pim_1_IC50
T1 construct: by full length recombinant Pim-1, Pim-2, or Pim-3 protein; hexahistidine tag followed by a thrombin cleavage site (N); made in house; host or cells: Sf9 (baculovirus) or E. coli (pET28)
How it was run: (§1)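 Full-length human Pim-1 or Pim-2 (His6-tagged, Sf9 or E. coli expressed, Ni and Superdex 75 purified) phosphorylates biotinylated BAD (S112) peptide in 60 mM Hepes pH 7.0, 0.05% BSA, 2 mM DTT. Stopped with 3 mM EDTA; HTRF read with Eu anti-phospho-BAD and streptavidin-APC. IC50 from 4-parameter logistic fit of percent of control.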

[2] = target: T2, full length recombinant Pim-2 protein (Homo sapiens, UniProt Q9P1W9); assay: Pim-2 enzyme assay (HTRF, phosphorylation of biotinylated-BAD (S112) peptide); type: biochemical; conditions: read-out: Pim2_IC50
T2 construct: by full length recombinant Pim-1, Pim-2, or Pim-3 protein; hexahistidine tag followed by a thrombin cleavage site (N); made in house; host or cells: Sf9 (baculovirus) or E. coli (pET28)
How it was run: as §1

[3] = target: T3, Pim-1 stably transfected into the U2OS human osteogenic sarcoma line (Homo sapiens, UniProt P11309); assay: Pim cell assay, phospho-BAD normalized against total BAD, U2OS stably transfected with Pim-1; type: cell-based; conditions: U2OS stably transfected with Pim-1; phospho-BAD normalized against total BAD; 29 min incubation; read-out: Pim1_Cell_IC50_
T3 construct: expressed in transfected cells; host or cells: U2OS human osteogenic sarcoma line
How it was run: (§2)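 U2OS cells stably expressing Pim-1 or Pim-2 were plated overnight at 37 °C, then dosed over a 10-point curve (final 0.3% DMSO; DMSO alone as high control). Lysates assayed for phospho- and total BAD by Meso Scale immunoassay; % phosphoprotein = (2×phospho)/(phospho+total)×100.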

[4] = target: T4, Pim-2 stably transfected into the U2OS human osteogenic sarcoma line (Homo sapiens, UniProt Q9P1W9); assay: Pim cell assay, phospho-BAD normalized against total BAD, U2OS stably transfected with Pim-2; type: cell-based; conditions: U2OS stably transfected with Pim-2; phospho-BAD normalized against total BAD; 29 min incubation; read-out: Pim2_Cell_IC50_
T4 construct: expressed in transfected cells; host or cells: U2OS human osteogenic sarcoma line
How it was run: as §2

KMS-Cell = assay: KMS cell IC50 (Table 4); type: cell-based; conditions: KMS cells

T1 sequence (P11309 whole entry): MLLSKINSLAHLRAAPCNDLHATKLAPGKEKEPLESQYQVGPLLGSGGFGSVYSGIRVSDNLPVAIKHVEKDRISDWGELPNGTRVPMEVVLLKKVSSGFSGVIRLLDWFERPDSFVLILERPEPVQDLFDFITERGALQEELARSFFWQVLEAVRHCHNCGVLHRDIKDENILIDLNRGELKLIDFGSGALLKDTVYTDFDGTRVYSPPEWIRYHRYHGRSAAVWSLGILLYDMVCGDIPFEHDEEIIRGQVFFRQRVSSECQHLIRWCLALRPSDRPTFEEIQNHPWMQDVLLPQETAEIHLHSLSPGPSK
T3 sequence (P11309 whole entry): as above
T2 sequence (Q9P1W9 whole entry): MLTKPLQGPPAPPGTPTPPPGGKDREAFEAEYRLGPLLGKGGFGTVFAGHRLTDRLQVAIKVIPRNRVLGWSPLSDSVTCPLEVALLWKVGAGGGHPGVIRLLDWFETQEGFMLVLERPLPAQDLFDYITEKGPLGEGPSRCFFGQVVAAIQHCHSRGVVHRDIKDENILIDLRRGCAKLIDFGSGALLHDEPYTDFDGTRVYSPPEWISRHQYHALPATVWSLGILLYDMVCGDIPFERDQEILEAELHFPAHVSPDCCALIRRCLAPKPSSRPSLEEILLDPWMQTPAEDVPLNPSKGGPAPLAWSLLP
T4 sequence (Q9P1W9 whole entry): as above

| IC50 [1] | IC50 [2] | IC50 [3] | IC50 [4] | IC50 (KMS-Cell) | Compound |
| --- | --- | --- | --- | --- | --- |
| 1 nM | 4 nM | 433 nM | 2470 nM | 6280 nM | CC1CCNCC1Oc1cncc(-c2n[nH]c3ccc(-c4c(F)cccc4F)cc23)n1 (single isomer, unassigned) [Example 424] |
| 9 nM | 35 nM |  |  | 5780 nM | COC(=O)c1ccc2[nH]nc(-c3cncc(O[C@H]4CNCCC45CC5)n3)c2c1 [Example 265, methyl 3-(6-((4R)-6-azaspiro[25]oct-4-yloxy)-2-pyrazinyl)-1H-indazole-5-carboxylate bis(2,2,2-trifluoroacetate)] |
| 20 nM | 99 nM |  |  | 7380 nM | N#CCc1ccc2[nH]nc(-c3cncc(O[C@H]4CNCCC45CC5)n3)c2c1 [Example 269, (3-(6-((4R)-6-azaspiro[25]oct-4-yloxy)-2-pyrazinyl)-1H-indazol-5-yl)acetonitrile 2,2,2-trifluoroacetate] |
|  |  | 1170 nM | > 10000 nM | 2650 nM | O=c1cc(-c2n[nH]c3ccc(-c4c(F)cccc4F)cc23)nc(N[C@@H]2CCCNC2)[nH]1 [Example 282, (R)-6-(5-(2,6-difluorophenyl)-1H-indazol-3-yl)-2-(piperidin-3-ylamino)pyrimidin-4(3H)-one] |
| 20 nM | 178 nM |  |  | > 31600 nM | c1cc(-c2ccc3[nH]cc(-c4cncc(O[C@@H]5CCCNC5)n4)c3c2)cc(-c2cc[nH]n2)c1 [Example 351] |
| 20 nM | 104 nM |  |  | > 31600 nM | c1cc(-c2ccc3[nH]cc(-c4cncc(O[C@@H]5CCCNC5)n4)c3c2)cc(-c2nnn[nH]2)c1 [Example 355] |
| 6 nM | 41 nM |  |  | 12600 nM | c1cc(-c2ccc3[nH]cc(-c4cncc(O[C@@H]5CCCNC5)n4)c3c2)cc(-c2ccno2)c1 [Example 356] |
| 13 nM | 179 nM |  |  | > 31600 nM | Cc1nc(-c2cccc(-c3ccc4[nH]cc(-c5cncc(O[C@@H]6CCCNC6)n5)c4c3)c2)cs1 [Example 357] |
| 4 nM | 20 nM |  |  | 8520 nM | c1ccc(-c2ccc3[nH]cc(-c4cncc(O[C@@H]5CCCNC5)n4)c3c2)cc1 [Example 358] |
|  | 5 nM | 22 nM | 3460 nM | 5850 nM | c1cc2[nH]nc(-c3cncc(OC4CCNCC4)n3)c2cc1-c1cncc(C2CC2)n1 [Example 364, 5-(6-cyclopropyl-2-pyrazinyl)-3-(6-(4-piperidinyloxy)-2-pyrazinyl)-1H-indazole] |
| 20 nM | 144 nM |  |  | 14300 nM | CC[C@@H]1CCNC[C@H]1Oc1cncc(-c2n[nH]c3ccc(-c4c(F)cccc4F)cc23)n1 [Example 397] |
| 9 nM | 12 nM |  |  | 10700 nM | CC[C@H]1CCNC[C@@H]1Oc1cncc(-c2n[nH]c3ccc(-c4c(F)cccc4F)cc23)n1 [Example 398, 5-(2,6-difluorophenyl)-3-(6-(((3R,4S)-4-ethyl-3-piperidinyl)oxy)-2-pyrazinyl)-1H-indazole] |
| 2 nM | 1 nM | 460 nM | 5310 nM | 2360 nM | Clc1ccccc1-c1ccc2[nH]nc(-c3cncc(O[C@H]4CNCCC45CC5)n3)c2c1 [Example 406] |
| 1 nM | 1 nM |  |  | 1300 nM | N#Cc1ccccc1-c1ccc2[nH]nc(-c3cncc(O[C@H]4CNCCC45CC5)n3)c2c1 [Example 408] |
| 1 nM | 1 nM |  |  | 2680 nM | N#Cc1cccc(F)c1-c1ccc2[nH]nc(-c3cncc(O[C@H]4CNCCC45CC5)n3)c2c1 [Example 409] |
| 9 nM | 7 nM |  |  | 1750 nM | N#Cc1ncccc1-c1ccc2[nH]nc(-c3cncc(O[C@H]4CNCCC45CC5)n3)c2c1 [Example 410] |
| 4 nM | 12 nM |  |  | 1220 nM | N#Cc1ccncc1-c1ccc2[nH]nc(-c3cncc(O[C@H]4CNCCC45CC5)n3)c2c1 [Example 411] |
| 2 nM | 4 nM |  |  | 6430 nM | Fc1ccc(F)c(-c2ccc3[nH]nc(-c4cncc(O[C@H]5CNCCC56CC6)n4)c3c2)c1 [Example 442] |

| IC50 [1] | IC50 [2] | IC50 [3] | IC50 [4] | IC50 (KMS-Cell) | Compound |
| --- | --- | --- | --- | --- | --- |
| 1 nM | 5 nM |  |  | 4640 nM | Fc1ccc(Cl)cc1-c1ccc2[nH]nc(-c3cncc(O[C@H]4CNCCC45CC5)n3)c2c1 [Example 443] |
| 4 nM | 28 nM |  |  | 5050 nM | Fc1cccc(F)c1-c1ccc2[nH]nc(-c3cncc(OC4CNCC5CC54)n3)c2c1 (stereo not drawn) [Example 444] |
| 3 nM | 5 nM |  |  | 1730 nM | c1cc2[nH]nc(-c3cncc(O[C@H]4CNCCC45CC5)n3)c2cc1C1CC1 [Example 446] |
| 4 nM | 4 nM |  |  | 3160 nM | c1cc2[nH]nc(-c3cncc(O[C@H]4CNCCC45CC5)n3)c2cc1C1CCCC1 [Example 447] |
| 3 nM | 9 nM |  |  | 1470 nM | Fc1ccnc(F)c1-c1ccc2[nH]nc(-c3cncc(O[C@H]4CNCCC45CC5)n3)c2c1 [Example 451] |
| 20 nM | 97 nM |  |  | 9410 nM | Fc1cccc(F)c1-c1ccc2[nH]nc(-c3cncc(OC4CNCC5CC54)n3)c2c1 (stereo not drawn) [Example 452] |
| 4 nM | 7 nM |  |  | 4190 nM | c1cc2[nH]nc(-c3cncc(O[C@H]4CNCCC45CC5)n3)c2cc1C1CCC1 [Example 453] |
| 4 nM | 3 nM |  |  | 5490 nM | N#Cc1ccc(-c2ccc3[nH]nc(-c4cncc(O[C@H]5CNCCC56CC6)n4)c3c2)c(F)c1 [Example 456] |
| 2 nM | 1 nM |  |  | 1610 nM | NS(=O)(=O)c1ccc(-c2ccc3[nH]nc(-c4cncc(O[C@H]5CNCCC56CC6)n4)c3c2)c(F)c1 [Example 463] |
| 3 nM | 3 nM |  |  | 546 nM | CS(=O)(=O)c1cc(F)c(-c2ccc3[nH]nc(-c4cncc(O[C@H]5CNCCC56CC6)n4)c3c2)c(F)c1 [Example 467] |
| 2 nM | 3 nM | 202 nM | 4480 nM | 1690 nM | COC(=O)c1ccc2[nH]nc(-c3ccnc(NC4CCNCC4)n3)c2c1 [Example 489] |
| 4 nM | 8 nM |  |  | 1450 nM | COC(=O)c1ccc2[nH]nc(-c3ccnc(N4CCC(N)CC4)n3)c2c1 [Example 491] |
| 70 nM | 159 nM |  |  | > 15800 nM | O=C(O)c1ccc2[nH]nc(-c3cncc(N[C@@H]4CCCNC4)n3)c2c1 [Example 495] |
| 13 nM | 79 nM | 354 nM | > 31600 nM | > 15800 nM | CN(C)c1nc(-c2c[nH]c3ccc(-c4cncc(C5CC5)n4)cc23)cc(=O)[nH]1 [Example 527] |
| 2 nM | 2 nM |  |  | 2620 nM | O=c1cc(-c2n[nH]c3ccc(-c4c(F)cccc4F)cc23)nc(O[C@@H]2CCCNC2)[nH]1 [Example 529] |
| 2 nM | 24 nM |  |  | 6040 nM | c1coc(-c2ccc3[nH]nc(-c4cncc(N[C@@H]5CCCNC5)n4)c3c2)n1 [Example 541] |
| 2 nM | 24 nM |  |  | 15900 nM | c1coc(-c2ccc3[nH]cc(-c4cncc(N[C@@H]5CCCNC5)n4)c3c2)n1 [Example 542] |
| 7 nM | 10 nM |  |  | 6260 nM | O=c1cc(-c2n[nH]c3ccc(-c4c(F)cccc4F)cc23)nc(OC2CNCCC2F)[nH]1 (stereo not drawn) [Example 554] |
